Test results published in patent publication US20230416329A1, “A PEPTIDE WITH DISULFIDE BONDS AND INHIBITORY ACTIVITY AGAINST SERINE PROTEASES, DERIVED HYBRID PEPTIDES THEREOF, AND USES THEREOF” (INSTITUTE OF MATERIA MEDICA , CHINESE ACADEMY OF MEDICAL …, priority 2020, published 2023).
Bridge positions count the residues as written; N and C are the ends. Square brackets hold non-standard residues; d marks the D form. Peptide text beside a SMILES is read from it. hCys = N[C@@H](CCS)C(=O)O

Each molecule was assayed against T1, bovine trypsin (Bos taurus, UniProt P00760) (assay: Trypsin inhibitory activity of peptides (BApNA hydrolysis, OD405; IC50, Ki, residual activity)). Conditions: not given.
T1 sequence (P00760 24-246): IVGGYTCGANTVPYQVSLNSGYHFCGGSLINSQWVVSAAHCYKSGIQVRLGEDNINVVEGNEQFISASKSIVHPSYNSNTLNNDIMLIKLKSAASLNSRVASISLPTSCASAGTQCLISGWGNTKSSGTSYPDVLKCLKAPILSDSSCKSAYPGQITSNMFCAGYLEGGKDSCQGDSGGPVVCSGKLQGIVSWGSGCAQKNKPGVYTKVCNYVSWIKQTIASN
Type: biochemical
Method in brief: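 Trypsin (50 nM final) preincubated with peptides at 37 °C in 50 mM Tris-HCl pH 7.8, 20 mM CaCl2; BApNA added (1.22 mM final), 260 min at 37 °C, then OD405 read. Residual activity from enzyme-only and substrate-only controls; IC50 fitted and converted to Ki via Ki=IC50/(1+S/Km), Km measured separately for BApNA.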
For `CC[C@H](C)[C@@H]1NC(=O)[C@@H]2CCCN2C(=O)[C@@H]2CCCN2C(=O)[C@H]([C@@H](C)CC)NC(=O)[C@H](CO)NC(=O)[C@H](CCCCN)NC(=O)[C@H]([C@@H](C)O)NC(=O)[C@H](C)NC(=O)[C@H](CCCNC(=N)N)NC(=O)CNC(=O)[C@@H](N)CCSSCC[C@@H](C(=O)O)NC(=O)[C@H](Cc2ccccc2)NC(=O)[C@H](C)NC1=O` [BT29] (H-[hCys]GRATKSIPPIAF[hCys]-OH; disulfide 1-14; N-terminus assumed), the “inhibitory activity against trypsin (in words)” value (shortened to “inhibitory activity”) was “still maintained good inhibitory activity against trypsin”. With `CC[C@H](C)[C@@H]1NC(=O)[C@@H]2CCCN2C(=O)[C@@H]2CCCN2C(=O)[C@H]([C@@H](C)CC)NC(=O)[C@H](CO)NC(=O)[C@H](CCCCN)NC(=O)[C@H]([C@@H](C)O)NC(=O)[C@H](C)NC(=O)[C@H](CCCNC(=N)N)NC(=O)CNC(=O)[C@@H](N)CSSC[C@@H](C(=O)O)NC(=O)CNC(=O)[C@H](Cc2ccccc2)NC(=O)[C@H](C)NC1=O` [BT32] (H-CGRATKSIPPIAFGC-OH; disulfide 1-15; N-terminus and C-terminus assumed) the “inhibitory activity” value was “still maintained good inhibitory activity against trypsin”. `CC[C@H](C)[C@@H]1NC(=O)[C@@H]2CCCN2C(=O)[C@@H]2CCCN2C(=O)[C@H]([C@@H](C)CC)NC(=O)[C@H](CO)NC(=O)[C@H](CCCCN)NC(=O)[C@H]([C@@H](C)O)NC(=O)[C@H](C)NC(=O)[C@H](CCCNC(=N)N)NC(=O)CNC(=O)[C@@H](N)CCSSCC[C@@H](C(=O)O)NC(=O)CNC(=O)[C@H](Cc2ccccc2)NC(=O)[C@H](C)NC1=O` [BT33] (H-[hCys]GRATKSIPPIAFG[hCys]-OH; disulfide 1-15; N-terminus assumed) was tested, and the “inhibitory activity” value was “still maintained good inhibitory activity against trypsin”.

Same assay, conditions: trypsin 50 nM, BApNA 1.22 mM; read-out: IC50
With `CC[C@H](C)[C@@H]1NC(=O)[C@@H]2CCCN2C(=O)[C@@H]2CCCN2C(=O)[C@H]([C@@H](C)CC)NC(=O)[C@H](CO)NC(=O)[C@H](CCCCN)NC(=O)[C@H]([C@@H](C)O)NC(=O)[C@H](C)NC(=O)[C@H](CCCNC(=N)N)NC(=O)CNC(=O)[C@@H](N)CSSC[C@@H](C(=O)O)NC(=O)[C@H](Cc2ccccc2)NC1=O` [BT30] (H-CGRATKSIPPIFC-OH; disulfide 1-13 (inferred); N-terminus and C-terminus assumed) the IC50 was > 50 µM. For `CC[C@H](C)[C@@H]1NC(=O)[C@H](CO)NC(=O)[C@H](CCCCN)NC(=O)[C@H]([C@@H](C)O)NC(=O)[C@H](C)NC(=O)[C@H](CCCNC(=N)N)NC(=O)CNC(=O)[C@@H](N)CSSC[C@@H](C(=O)O)NC(=O)[C@H](Cc2ccccc2)NC(=O)[C@H](C)NC(=O)[C@@H]2CCCN2C(=O)[C@@H]2CCCN2C1=O` [BT31] (H-CGRATKSIPPAFC-OH; disulfide 1-13 (inferred); N-terminus and C-terminus assumed), the IC50 was > 50 µM. In the case of `CC[C@H](C)[C@@H]1NC(=O)[C@H](CO)NC(=O)[C@H](CCCCN)NC(=O)[C@H]([C@@H](C)O)NC(=O)[C@H](C)NC(=O)[C@H](CCCNC(=N)N)NC(=O)CNC(=O)[C@@H](N)CSSC[C@@H](C(=O)O)NC(=O)[C@H](CCCNC(=N)N)NC(=O)[C@H](C)NC(=O)[C@H](CCC(N)=O)NC(=O)[C@@H]2CCCN2C(=O)[C@@H]2CCCN2C1=O` [BT34] (H-CGRATKSIPPQARC-OH; disulfide 1-14), the IC50 is reported as > 50 µM. For `CC[C@H](C)[C@@H]1NC(=O)[C@H](CO)NC(=O)[C@H](CCCCN)NC(=O)[C@H]([C@@H](C)O)NC(=O)[C@H](Cc2c[nH]c3ccccc23)NC(=O)CNC(=O)[C@@H](N)CSSC[C@@H](C(=O)O)NC(=O)[C@@H]2CCCN2C(=O)[C@H](CCCCN)NC(=O)[C@@H]2CCCN2C(=O)[C@@H]2CCCN2C1=O` [BT37] (H-CGWTKSIPPKPC-OH; disulfide 1-12), the IC50 was > 50 µM. `CC[C@H](C)[C@@H]1NC(=O)[C@H](CO)NC(=O)[C@H](CCCCN)NC(=O)[C@H]([C@@H](C)O)NC(=O)[C@H](Cc2c[nH]c3ccccc23)NC(=O)[C@H](CCCNC(=N)N)NC(=O)CNC(=O)[C@@H](N)CSSC[C@@H](C(=O)O)NC(=O)[C@@H]2CCCN2C(=O)[C@H](CCCCN)NC(=O)[C@@H]2CCCN2C(=O)[C@@H]2CCCN2C1=O` [BT38] (H-CGRWTKSIPPKPC-OH; disulfide 1-13 (inferred); N-terminus and C-terminus assumed) was tested, and the IC50 was > 50 µM. With `CC[C@H](C)[C@@H]1NC(=O)[C@H](CO)NC(=O)[C@H](CCCCN)NC(=O)[C@H]([C@@H](C)O)NC(=O)[C@H](Cc2c[nH]c3ccccc23)NC(=O)[C@H](CCCNC(=N)N)NC(=O)CNC(=O)[C@@H](N)CSSC[C@@H](C(=O)O)NC(=O)[C@H](Cc2ccccc2)NC(=O)[C@H](C)NC(=O)[C@@H]2CCCN2C(=O)[C@@H]2CCCN2C1=O` [BT39] (H-CGRWTKSIPPAFC-OH; disulfide 1-13 (inferred); N-terminus and C-terminus assumed) the IC50 was > 50 µM. With `CC[C@H](C)[C@@H]1NC(=O)[C@@H]2CCCN2C(=O)[C@@H]2CCCN2C(=O)[C@H]([C@@H](C)CC)NC(=O)[C@H](CO)NC(=O)[C@H](CCCCN)NC(=O)[C@H]([C@@H](C)O)NC(=O)[C@H](Cc2c[nH]c3ccccc23)NC(=O)[C@H](CCCNC(=N)N)NC(=O)CNC(=O)[C@@H](N)CSSC[C@@H](C(=O)O)NC(=O)[C@H](Cc2ccccc2)NC1=O` [BT40] (H-CGRWTKSIPPIFC-OH; disulfide 1-13 (inferred); N-terminus and C-terminus assumed) the IC50 was > 50 µM. `CC[C@H](C)[C@@H]1NC(=O)[C@H](CCCCN)NC(=O)[C@@H]2CCCN2C(=O)[C@@H](NC(=O)[C@H](CCCNC(=N)N)NC(=O)CN)CSSC[C@@H](C(=O)N[C@@H](Cc2ccccc2)C(=O)O)NC(=O)[C@H](CCCCN)NC(=O)[C@H](CCCCN)NC(=O)[C@H](CC(C)C)NC1=O` [BT41] (H-GRCPKILKKCF-OH; disulfide 3-10) was tested, and the IC50 was > 50 µM. `CC[C@H](C)[C@@H]1NC(=O)[C@H](CCCCN)NC(=O)[C@@H]2CCCN2C(=O)[C@H](C)NC(=O)[C@H](CCCNC(=N)N)NC(=O)CNC(=O)[C@@H](N)CSSC[C@@H](C(=O)N[C@@H](Cc2ccccc2)C(=O)O)NC(=O)[C@H](CCCCN)NC(=O)[C@H](CCCCN)NC(=O)[C@H](CC(C)C)NC1=O` [BT42] (H-CGRAPKILKKCF-OH; disulfide 1-11) was tested, and the IC50 was > 50 µM. With `CC[C@H](C)[C@@H]1NC(=O)[C@H](CCCCN)NC(=O)[C@@H]2CCCN2C(=O)[C@@H](NC(=O)[C@H](CCCNC(=N)N)NC(=O)CN)CSSC[C@@H](C(=O)N[C@@H](Cc2ccccc2)C(=O)O)NC(=O)[C@H](CCCNC(=N)N)NC(=O)[C@H](CCC(N)=O)NC(=O)[C@H](CC(C)C)NC1=O` [BT43] (H-GRCPKILQRCF-OH; disulfide 3-10) the IC50 was > 50 µM. For `CC[C@H](C)[C@@H]1NC(=O)[C@H](CCCCN)NC(=O)[C@@H]2CCCN2C(=O)[C@H](C)NC(=O)[C@H](CCCNC(=N)N)NC(=O)CNC(=O)[C@@H](N)CSSC[C@@H](C(=O)N[C@@H](Cc2ccccc2)C(=O)O)NC(=O)[C@H](CCCNC(=N)N)NC(=O)[C@H](CCC(N)=O)NC(=O)[C@H](CC(C)C)NC1=O` [BT44] (H-CGRAPKILQRCF-OH; disulfide 1-11 (inferred); N-terminus and C-terminus assumed), the IC50 was > 50 µM.
